In PubChem BioAssay (NCI):
Values joined by “and” are separate entries in the source; they are usually repeats but may differ in a detail not shown here. Equal entries are not always repeated.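 Values below derive from 48-hour exposures of cells grown in 96-well plates, with endpoints linearly interpolated between the two concentrations bracketing the appropriate inhibition level. GI50 is the concentration that inhibits growth by half. The concentration for full growth arrest is given as TGI.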 Where a SMILES comes first, the peptide text is derived from it. The star is where a group is joined. Boc = CC(C)(C)OC(=O)*; OBn = c1ccc(CO*)cc1

Experiments:
Test in all cases: NCI anticancer screen, dose series, 48 h
786-0 renal = system: 786-0 renal
EKVX NSCLC = system: EKVX NSCLC
HCT-15 colon = system: HCT-15 colon
HS 578T breast = system: HS 578T breast
IGROV1 ovarian = system: IGROV1 ovarian
PC-3 prostate = system: PC-3 prostate
RPMI-8226 leukemia = system: RPMI-8226 leukemia
SK-MEL-5 melanoma = system: SK-MEL-5 melanoma
U251 CNS = system: U251 CNS
ACHN renal = system: ACHN renal

Compound | TGI (786-0 renal) [µM] | TGI (EKVX NSCLC) [µM] | TGI (HCT-15 colon) [µM] | TGI (HS 578T breast) [µM] | TGI (IGROV1 ovarian) [µM] | TGI (PC-3 prostate) [µM] | TGI (RPMI-8226 leukemia) [µM] | TGI (SK-MEL-5 melanoma) [µM] | TGI (U251 CNS) [µM] | TGI (ACHN renal) [µM] | GI50 (U251 CNS) | GI50 (ACHN renal) [µM] | GI50 (EKVX NSCLC) [µM] | GI50 (HCT-15 colon) [µM] | GI50 (HS 578T breast) [µM] | GI50 (PC-3 prostate) [µM] | GI50 (RPMI-8226 leukemia) [µM] | GI50 (SK-MEL-5 melanoma) [µM]
CC(=O)OC12c3ccccc3C(c3ccccc31)C1C(=O)N(c3ccccn3)C(=O)C12 (stereo unspecified) | > 100 | > 100 | > 100 | > 100 | > 100 | > 100 | > 100 | > 100 | > 100 | – | – | – | – | – | – | – | – | –
Cc1ccc(NC2=NCCO2)c2c1CCC2 | > 100 | > 100 | > 100 | > 100 | > 100 | > 100 | > 100 | 32.9 | > 100 | > 100 | – | – | – | – | – | – | – | –
CS[C@]12[C@@H]3C(=O)N(C)C(=O)[C@@H]3[C@](C)(C(=O)N1C)C(=O)N2c1ccccc1 | > 100 | > 100 | > 100 | > 100 | > 100 | > 100 | > 100 | > 100 | > 100 | > 100 | – | – | – | – | – | – | – | –
CCCCCCCCCC(=O)N[C@@H](c1ccco1)[C@@H](O)C(=O)O[C@H]1C[C@@]2(O)[C@@H](OC(=O)c3ccccc3)[C@@H]3[C@]4(OC(C)=O)CO[C@@H]4C[C@H](O)[C@@]3(C)C(=O)[C@H](OC(C)=O)C(=C1C)C2(C)C | 7.95 | > 50 | 8.73 | 0.0857 | 16.1 | > 35.1 | 0.0483 | 2.25 | 2.34 | > 22.7 | – | – | – | – | – | – | – | –
COC(=O)CCc1c(Cc2ccc[nH]2)[nH]c(C(=O)OCc2ccccc2)c1C | 31.4 | 91.3 | 36.3 | 88.5 | 31.4 | 60 | 76.5 | 29.2 | 44.1 | 70.6 | – | – | – | – | – | – | – | –
Nc1nccc(NCC2(CO)CCC2)n1 | > 100 | > 100 | > 100 | > 100 | > 100 | > 100 | > 100 | > 100 | > 100 | > 100 | – | – | – | – | – | – | – | –
CC(C)CC(NC(=O)OC(C)(C)C)C(=O)NC(CC(=O)OCc1ccccc1)C(=O)OCc1ccccc1 (stereo not drawn) (Boc-Leu-Asp(OBn)-OBn; configuration not given here) | 49.6 | > 100 | – | > 100 | – | 84.8 | 97.3 | 57.3 | 81.7 | – | – | – | – | – | – | – | – | –
C=C1[C@@](C)([C@@H]2CCCS2)[C@H]2C(C)=C[C@]1(C)n1c(=O)n(-c3ccccc3)c(=O)n12 | > 100 | > 100 | > 100 | > 100 | > 100 | > 100 | > 100 | > 100 | > 100 | > 100 | – | – | – | – | – | – | – | –
O=C1CC(C(OCc2ccccc2)C(OCc2ccccc2)C(COCc2ccccc2)OCc2ccccc2)CC(=O)N1 (stereo unspecified) | > 100 | > 100 | > 100 | > 100 | > 100 | > 100 | > 100 | > 100 | > 100 | > 100 | > 100 µM and 40 µM | – | – | – | – | – | – | –
CCCC1C(=O)Nc2cccc3ncn(c23)C1=O (stereo unspecified) | > 100 | > 100 | > 100 | > 100 | > 100 | > 100 | > 100 | > 100 | > 100 | > 100 | – | – | – | – | – | – | – | –
O=C(O)CC[P+](c1ccccc1)(c1ccccc1)c1ccccc1 | > 100 | > 100 | > 100 | > 100 | > 100 | > 100 | 19.9 | 42.2 | > 100 | > 100 | – | – | – | – | – | – | – | –
CN(C)c1ccc(/C=C/C(=O)N[C@@H]2C(=O)N3[C@@H]2SC(C)(C)[C@@H]3C(=O)O)cc1 | > 100 | > 100 | > 100 | > 100 | – | > 100 | > 100 | > 100 | > 100 | > 100 | – | – | – | – | – | – | – | –
COc1ccc(/C=C/C(=O)c2ccc(-n3cc(CN4CCN(c5cc6c(cc5F)c(=O)c(C(=O)O)cn6C5CC5)CC4)nn3)cc2)cc1OC | – | > 100 | > 100 | > 100 | – | 15.7 | 4.46 | 7.74 | > 100 | 45.2 | 1.48 µM | 3.5 | 4.24 | 2.25 | 3.91 | 2.54 | 0.401 | 2.64
CC(=O)NC1=C(NCCCl)C(=O)c2ccccc2C1=O | > 100 | > 100 | > 100 | > 100 | > 100 | 96.2 | > 100 | 30.5 | > 100 | > 100 | – | – | – | – | – | – | – | –
CCOC(=O)NNC(=O)NCc1ccccc1CNC(=O)NNC(=O)OCC | > 100 | > 100 | > 100 | > 100 | > 100 | > 100 | > 100 | > 100 | > 100 | – | – | – | – | – | – | – | – | –
O=[N+]([O-])c1ccc2oc(=Nc3ccccc3)c(Nc3ccccc3)nc2c1 | 76.6 | > 100 | > 100 | > 100 | > 100 | > 100 | > 100 | > 100 | > 100 | > 100 | – | – | – | – | – | – | – | –
Cc1c(OCc2ccccc2)c(=O)ccn1CCc1c[nH]c2ccccc12 | 87 | > 100 | > 100 | > 100 | > 100 | > 100 | 59.3 | 35.3 | > 100 | > 100 | – | – | – | – | – | – | – | –
CS(=O)(=O)c1nc(-c2cc3c(c(S(C)(=O)=O)n2)CCC3)cc2c1CCCC2 | > 100 | > 100 | > 100 | 14.1 | 34.8 | > 100 | > 100 | > 100 | > 100 | > 100 | – | – | – | – | – | – | – | –
COc1ccc(C2OCCN2C)cc1 (stereo unspecified) | > 100 | > 100 | > 100 | > 100 | > 100 | > 100 | > 100 | > 100 | > 100 | > 100 | – | – | – | – | – | – | – | –
CN1N=C(c2ccncc2)OC1c1cccc(C(F)(F)F)c1 (stereo unspecified) | > 100 | > 100 | > 100 | > 100 | > 100 | > 100 | > 100 | > 100 | > 100 | > 100 | – | – | – | – | – | – | – | –
